Data as given in patent publication US10676519B2, “Chimeric proteins and their use in identifying anti-deubiquitinase compounds” (The Florida State University Research Foundation, Inc., priority 2017, dated 2020).

Columns and labels:
[1] = test system: primary screen strain (yeast with hRpn11, UBP6 deleted); test: DMSO tolerance of the primary screen yeast strain, growth in microtiter plates; assay type: cell-based, Saccharomyces cerevisiae; settings: primary screen strain (FIG. 4A); concentrations of DMSO up to 1%; cell density monitored over 24 hours; sextuplicate
Text: (§1) In baker's yeast (S. cerevisiae), deletion of the endogenous yeast Rpn11 gene is lethal, but inhibition of Rpn11 deubiquitinating activity is not. Inhibition of Rpn11 activity is lethal only when a second deubiquitinase, UBP6, is deleted (FIG. 2A). Importantly, this synthetic lethal relationship is maintained in yeast harboring hRpn11 (FIG. 3). Thus, a selective inhibitor of human Rpn11 would be lethal in the hRpn11 strain lacking UBP6 (primary screen strain), but nontoxic in a strain containing UBP6 and harboring inactivating point mutations in hRpn11 (counterscreening strain) (FIG. 2B). By measuring cell growth in the presence of potential inhibitors using any commercially available plate reader, a high throughput cell-based screen for compounds selectively inhibiting hRpn11 can be enacted.
(§2) Many high throughput screens include a library of chemical compounds having different solubility in different solvents. A common solvent used to solve this issue is dimethyl sulfoxide (“DMSO”). However, DMSO can be toxic to biological cells. Thus, it is advantageous if the biological cell is resistant to levels of DMSO which are used to dissolve compounds in a library. […]
(§3) In a fourth example, yeast strains were evaluated for tolerance of a commonly used solvent in high throughput screens. […] Cell density was monitored over 24 hours as an indicator of cell growth.

[2] = test system: counterscreen strain (yeast with UBP6 intact); test: DMSO tolerance of the counterscreen yeast strain, growth in microtiter plates; assay type: cell-based, Saccharomyces cerevisiae; settings: counterscreen strain (FIG. 4B); concentrations of DMSO up to 1%; cell density monitored over 24 hours; sextuplicate
Text: as §1, §2, §3

C[S+](C)[O-] [DMSO, dimethylsulfoxide]
differences in growth rate, time to saturation, or saturation cell density [1]: No statistical differences | differences in growth rate, time to saturation, or saturation cell density [2]: No statistical differences
